Columns and labels:
[1] = test system: CD-1 mice; experiment: Paclitaxel-induced cold allodynia, acetone test
Protocol: Experiments were performed in CD-1 mice (Charles River, U.S.A.) with at least n=10/experimental group. […] Control animals received the same volume of solvent (a mixture of ethanol and cremophor EL)
Mechanical allodynia was evaluated with an electronically driven Von Frey filament (Dynamic Plantar Aesthesiometer, Ugo Basile, Varese, Italy) as previously described (Nieto et al., 2008), and cold allodynia was evaluated using the acetone drop method (Polomano et al., 2001; Smith et al., 2004).
In addition, in order to study the influence of the sigma 1 receptor in this process the difference in development of allodynia was determined using wild-type mice and sigma 1-receptor knock-out-mice.
Therefore, the cumulative dose was 10 mg/kg per mouse.
BD-1063 was dissolved in normal saline just before administration and applied at doses of 8, 16, 32 or 64 mg/kg subcutaneously.
The response of the animals to the different nociceptive stimuli was tested subsequently during 2-4 weeks, depending on the test (see below), without any additional treatment. Each animal was tested only in one nociceptive model. […] Each animal received only one dose of BD-1063 and was tested in only one nociceptive model.
Procedure for assessment of cold allodynia. Cold allodynia was tested as previously described by Smith et al., 2004, by gently touching the plantar skin of the hind paws with an acetone bubble formed with a syringe connected to a thin polyethylene tube. The mice were housed and habituated for 30 min in transparent plastic boxes (7×7×13 cm) with a floor made of wire mesh. After the adaptation period, acetone was applied alternately three times to each paw at intervals of 30 s, and the duration and frequency of licking or biting were recorded. A small mirror was placed behind the chambers to allow clear observation of the paws. The time spent licking or biting the paw was recorded by a stopwatch and represented as the cumulative time of licking/biting in the six measurements. Since licking persisting more than 10 s in the experiments was very unusual, a cut-off time of 10 s was used for each trial.
Therefore, the day 10, after the habituation period to the apparatus, baseline latencies were recorded, 30 min later BD-1063 or saline was injected s.c. and paw withdrawal latencies were assessed again 30, 60, 90, 120 and 180 minutes after the injection.

[2] = test system: CD-1 mice; experiment: Paclitaxel-induced mechanical allodynia, Von Frey test; format: in vivo
Protocol: Procedure for assessment of mechanical allodynia. To assess mechanical allodynia, paw withdrawal thresholds were measured using a Dynamic Plantar Aesthesiometer (Ugo Basile, Italy). The electronic Von Frey device employs a single nonflexible filament which applies a progressively increasing force (from 0 to 10 g) against the plantar surface of the hind paw over a 20 s period. […] The day of the experiment, mice were placed individually in test compartments (9×9×14 cm) with a wire mesh bottom and allowed to acclimatize to them for 2 h. After habituation, each mouse was tested three times alternately in each hind paw.

[3] = test system: patients; settings: paclitaxel 135 mg/m^2; cited from earlier work
[4] = test system: sigma receptor; settings: Sigma 1 and Sigma 2; cited from earlier work
[5] = sigma-1-receptor knockout animals, paclitaxel 2 mg/kg i.p. once daily during 5 days
[6] = wild-type animals, paclitaxel 2 mg/kg i.p. once daily during 5 days

For `CN1CCN(CCc2ccc(Cl)c(Cl)c2)CC1` [BD-1063], the “development of paclitaxel-induced cold allodynia (duration of hind paw licking/biting)” value ([1]; BD-1063 32 mg/kg 30 min before each paclitaxel injection (2 mg/kg i.p.), days 1 to 5, tested to day 24) was “inhibited the development of cold allodynia”, the “expression of paclitaxel-induced cold allodynia (duration of hind paw licking/biting)” value ([1]; single s.c. injection on day 10, 8, 16, 32 or 64 mg/kg, dose-dependent, significantly different from saline) was “inhibited the expression of paclitaxel-induced cold allodynia” and the “expression of paclitaxel-induced mechanical allodynia (threshold force for paw withdrawal)” value ([2]; single s.c. injection on day 10, 32 or 64 mg/kg, dose-dependent, significantly different from saline) was “inhibited the expression of paclitaxel-induced mechanical allodynia”.
With `CC(=O)O[C@H]1C(=O)[C@@]2(C)[C@H]([C@H](OC(=O)c3ccccc3)[C@]3(O)C[C@H](OC(=O)[C@H](O)[C@@H](NC(=O)c4ccccc4)c4ccccc4)C(C)=C1C3(C)C)[C@]1(OC(C)=O)CO[C@@H]1C[C@@H]2O` [paclitaxel, Paclitaxel] the “time of maximal paclitaxel-induced cold allodynia after the first injection” value ([1]; control mice, paclitaxel 2 mg/kg i.p. once daily during 5 days) was 10 to 14 days, the “animals with significantly increased time licking/biting the stimulated paw (paclitaxel-responder animals)” value ([1]; paclitaxel 2 mg/kg i.p. once daily during 5 days) was 67% and the paclitaxel-induced cold allodynia [1, 5] was “not significantly expressed”. The “time of maximal paclitaxel-induced cold allodynia after the first injection” value [1, 6] was 10 days, the “mechanical allodynia (threshold force for paw withdrawal) on day 10” value ([2]; paclitaxel 2 mg/kg i.p. during 5 days, vs pre-treatment and vehicle) was “induced mechanical allodynia” and the paclitaxel-induced mechanical allodynia [2, 5] was “not significantly expressed”. For the same compound, the “animals showing a reduction of the mechanical threshold” value ([2]; treated with paclitaxel) was 96%, the “time of maximal paclitaxel-induced mechanical allodynia after the first injection” value [2, 6] was 10 days and the “patients progressing to dose-limiting neurotoxicity” value [3] was 0%.
For `CC(C)=CCN1CCC2(C)c3cc(O)ccc3CC1C2C` (stereo not shown) [pentazocine], the “affinity of the sigma receptors to analgesics” value [4] is given as “very high affinity”.

Reference: patent publication US20110052723A1, “USE OF COMPOUNDS BINDING TO THE SIGMA RECEPTOR LIGANDS FOR THE TREATMENT OF NEUROPATHIC PAIN DEVELOPING AS A CONSEQUENCE OF CHEMOTHERAPY” (priority 2008, published 2011)
